Results: PubChem BioAssay AID248 (DTP/NCI, 2004)
Values joined by “and” are separate entries in the source; they are usually repeats but may differ in a detail not shown here. Equal entries are not always repeated. Toxic doses and inconclusive results are not listed. Rule as the data show it: active = T/C of 150% or more; inactive = T/C below 125%.

System: L1210 leukemia ip in BDF1 mice, survival T/C
Assay: NCI In Vivo Anticancer Drug Screen. Data for tumor model L1210 Leukemia (intraperitoneal) in B6D2F1 (BDF1) mice
Conditions: higher = longer survival
How it was run: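 Ratio derived from survival: compound-dosed mice over vehicle-dosed mice, all bearing a transplantable tumor.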

[1] = endpoint: mean survival time, dose: 10.0 mg/kg/injection, schedule: Q01DX001 (ip), vehicle: saline
[2] = endpoint: mean survival time, dose: 20.0 mg/kg/injection, schedule: Q01DX001 (ip), vehicle: saline
[3] = endpoint: mean survival time, dose: 40.0 mg/kg/injection, schedule: Q01DX001 (ip), vehicle: saline
[4] = endpoint: mean survival time, dose: 100.0 mg/kg/injection, schedule: Q04DX003 (ip), vehicle: Klucel (hydroxypropylcellulose) (HPC)
[5] = endpoint: mean survival time, dose: 100.0 mg/kg/injection, schedule: Q01DX001 (ip), vehicle: Klucel (hydroxypropylcellulose) (HPC)
[6] = endpoint: mean survival time, dose: 75.0 mg/kg/injection, schedule: Q01DX001 (ip), vehicle: saline
[7] = endpoint: mean survival time, dose: 100.0 mg/kg/injection, schedule: Q01DX009 (ip), vehicle: Klucel (hydroxypropylcellulose) (HPC)
[8] = endpoint: mean survival time, dose: 200.0 mg/kg/injection, schedule: Q01DX009 (ip), vehicle: Klucel (hydroxypropylcellulose) (HPC)

Measured: T/C

F
inactive: endpoint: mean survival time, dose: 5.0 mg/kg/injection, schedule: Q01DX001 (ip), vehicle: saline 89 % of control | [1] 97 % of control | endpoint: mean survival time, dose: 12.0 mg/kg/injection, schedule: Q01DX Z (ip), vehicle: saline 98 % of control | [2] 103 % of control | endpoint: mean survival time, dose: 24.0 mg/kg/injection, schedule: Q01DX Z (ip), vehicle: saline 101 % of control | [3] 97 % of control | endpoint: mean survival time, dose: 48.0 mg/kg/injection, schedule: Q01DX Z (ip), vehicle: saline 110 % of control | endpoint: mean survival time, dose: 62.0 mg/kg/injection, schedule: Q01DX Z (ip), vehicle: saline 92 % of control | endpoint: median survival time, dose: 5.0 mg/kg/injection, schedule: Q01DX009 (ip), vehicle: water 93 % of control | endpoint: median survival time, dose: 10.0 mg/kg/injection, schedule: Q01DX009 (ip), vehicle: water 100 % of control | endpoint: median survival time, dose: 20.0 mg/kg/injection, schedule: Q01DX009 (ip), vehicle: water 106 % of control | endpoint: median survival time, dose: 40.0 mg/kg/injection, schedule: Q01DX009 (ip), vehicle: water 106 % of control

O=C(Nc1ccc(C2=NCCN2)cc1)c1c(F)c(F)c(C(=O)Nc2ccc(C3=NCCN3)cc2)c(F)c1F
inactive: endpoint: mean survival time, dose: 1.87 mg/kg/injection, schedule: Q01DX015 (ip), vehicle: methylcellulose (MC) 103 % of control | endpoint: mean survival time, dose: 3.75 mg/kg/injection, schedule: Q01DX015 (ip), vehicle: methylcellulose (MC) 101 % of control | endpoint: mean survival time, dose: 7.5 mg/kg/injection, schedule: Q01DX015 (ip), vehicle: methylcellulose (MC) 121 % of control | endpoint: mean survival time, dose: 37.0 mg/kg/injection, schedule: Q01DX015 (ip), vehicle: methylcellulose (MC) 95 % of control

COc1ccc(/C=C2/c3c(c(-c4ccccc4)c4ccccc4c3-c3ccccc3)S2(=O)=O)cc1
inactive: endpoint: mean survival time, dose: 50.0 mg/kg/injection, schedule: Q01DX001 (ip), vehicle: carboxymethylcellulose (CMC) 97 % of control | endpoint: mean survival time, dose: 100.0 mg/kg/injection, schedule: Q01DX001 (ip), vehicle: carboxymethylcellulose (CMC) 95 % of control | endpoint: mean survival time, dose: 200.0 mg/kg/injection, schedule: Q01DX001 (ip), vehicle: carboxymethylcellulose (CMC) 95 % of control | endpoint: mean survival time, dose: 400.0 mg/kg/injection, schedule: Q01DX001 (ip), vehicle: carboxymethylcellulose (CMC) 86 % of control

[N-]=[N+]=Nc1ccc(-c2nc(N)[nH]c(=O)c2Br)cc1
inactive: [4] 93 % of control | endpoint: mean survival time, dose: 200.0 mg/kg/injection, schedule: Q04DX003 (ip), vehicle: Klucel (hydroxypropylcellulose) (HPC) 86 % of control | endpoint: mean survival time, dose: 400.0 mg/kg/injection, schedule: Q04DX003 (ip), vehicle: Klucel (hydroxypropylcellulose) (HPC) 100 % of control

Cc1cc(S(=O)(=O)F)ccc1NC(=O)Oc1ccccc1
inactive: endpoint: mean survival time, dose: 100.0 mg/kg/injection, schedule: Q04DX003 (ip), vehicle: gum acacia 95 % of control | endpoint: mean survival time, dose: 200.0 mg/kg/injection, schedule: Q04DX003 (ip), vehicle: gum acacia 104 % of control | endpoint: mean survival time, dose: 400.0 mg/kg/injection, schedule: Q04DX003 (ip), vehicle: gum acacia 87 % of control

CNC(=O)Oc1ccccc1C(=O)NCO
inactive: endpoint: mean survival time, dose: 50.0 mg/kg/injection, schedule: Q01DX001 (ip), vehicle: Klucel (hydroxypropylcellulose) (HPC) 97 % of control | endpoint: mean survival time, dose: 50.0 mg/kg/injection, schedule: Q01DX009 (ip), vehicle: Klucel (hydroxypropylcellulose) (HPC) 101 % of control and 107 % of control | endpoint: mean survival time, dose: 50.0 mg/kg/injection, schedule: Q04DX003 (ip), vehicle: Klucel (hydroxypropylcellulose) (HPC) 97 % of control | [5] 101 % of control | endpoint: mean survival time, dose: 100.0 mg/kg/injection, schedule: Q04DX002 (ip), vehicle: Klucel (hydroxypropylcellulose) (HPC) 94 % of control and 101 % of control | [4] 106 % of control | endpoint: mean survival time, dose: 200.0 mg/kg/injection, schedule: Q04DX002 (ip), vehicle: Klucel (hydroxypropylcellulose) (HPC) 98 % of control

O=S(=O)(O)c1ccc(-c2ccc(S(=O)(=O)O)cc2)cc1
inactive: endpoint: mean survival time, dose: 88.8 mg/kg/injection, schedule: Q01DX Z (ip), vehicle: methylcellulose (MC) 98 % of control | endpoint: mean survival time, dose: 133.0 mg/kg/injection, schedule: Q01DX Z (ip), vehicle: methylcellulose (MC) 90 % of control | endpoint: mean survival time, dose: 200.0 mg/kg/injection, schedule: Q01DX Z (ip), vehicle: methylcellulose (MC) 86 % of control

C[N+]1(C2CCCCC2)CCCCC1
inactive: endpoint: mean survival time, dose: 10.0 mg/kg/injection, schedule: Q01DX001 (ip), vehicle: acetone 96 % of control | [1] 98 % of control | endpoint: mean survival time, dose: 20.0 mg/kg/injection, schedule: Q01DX001 (ip), vehicle: acetone 95 % of control | [2] 95 % of control | endpoint: mean survival time, dose: 40.0 mg/kg/injection, schedule: Q01DX001 (ip), vehicle: acetone 102 % of control | [3] 93 % of control | [6] 101 % of control

CCOC(=O)c1ccc(NC(=O)/C=C/C(=O)O)cc1
inactive: [7] 100 % of control | [8] 95 % of control | endpoint: mean survival time, dose: 400.0 mg/kg/injection, schedule: Q01DX009 (ip), vehicle: Klucel (hydroxypropylcellulose) (HPC) 98 % of control

Cn1c(SCc2ccccc2)nccc1=O
inactive: [7] 96 % of control | [8] 104 % of control

CCCCCCCCCCCCCCCCOC(=O)C[n+]1cccc(C(N)=O)c1
inactive: endpoint: mean survival time, dose: 100.0 mg/kg/injection, schedule: Q04DX003 (ip), vehicle: saline 92 % of control | endpoint: mean survival time, dose: 200.0 mg/kg/injection, schedule: Q04DX003 (ip), vehicle: saline 99 % of control

Cc1ccc(S(=O)(=O)/N=C2\SCc3ccccc32)cc1
inactive: endpoint: mean survival time, dose: 12.5 mg/kg/injection, schedule: Q01DX009 (ip), vehicle: saline 108 % of control | endpoint: mean survival time, dose: 25.0 mg/kg/injection, schedule: Q01DX009 (ip), vehicle: saline 105 % of control | endpoint: mean survival time, dose: 50.0 mg/kg/injection, schedule: Q01DX009 (ip), vehicle: saline 94 % of control and 101 % of control | [5] 94 % of control | endpoint: mean survival time, dose: 200.0 mg/kg/injection, schedule: Q01DX001 (ip), vehicle: Klucel (hydroxypropylcellulose) (HPC) 88 % of control | endpoint: mean survival time, dose: 400.0 mg/kg/injection, schedule: Q01DX001 (ip), vehicle: Klucel (hydroxypropylcellulose) (HPC) 98 % of control

Cc1coc2c1[C@@H](O)[C@]1(C)[C@@H](C)CC[C@H](O)[C@]1(O)C2
inactive: endpoint: mean survival time, dose: 100.0 mg/kg/injection, schedule: Q01DX001 (ip), vehicle: saline 97 % of control | endpoint: mean survival time, dose: 200.0 mg/kg/injection, schedule: Q01DX001 (ip), vehicle: saline 95 % of control

CCOC(=O)C(=N\Nc1ccc(Cl)cc1Cl)/C(C)=N\NC(N)=S
inactive: [6] 95 % of control | endpoint: mean survival time, dose: 300.0 mg/kg/injection, schedule: Q01DX001 (ip), vehicle: saline 104 % of control

CC1CN=C(c2ccc(NC(=O)NCCCCCCCCCCNC(=O)Nc3ccc(C4=NCC(C)N4)cc3)cc2)N1 (configuration not stated)
inactive: endpoint: mean survival time, dose: 5.0 mg/kg/injection, schedule: Q01DX015 (ip), vehicle: water 96 % of control | endpoint: mean survival time, dose: 10.0 mg/kg/injection, schedule: Q01DX015 (ip), vehicle: water 102 % of control | endpoint: mean survival time, dose: 20.0 mg/kg/injection, schedule: Q01DX015 (ip), vehicle: water 103 % of control

CC1=COC(C)(C=O)CC1 (configuration not stated)
inactive: endpoint: mean survival time, dose: 222.0 mg/kg/injection, schedule: Q01DX Z (ip), vehicle: methylcellulose (MC) 94 % of control | endpoint: mean survival time, dose: 333.0 mg/kg/injection, schedule: Q01DX Z (ip), vehicle: methylcellulose (MC) 98 % of control | endpoint: mean survival time, dose: 500.0 mg/kg/injection, schedule: Q01DX Z (ip), vehicle: methylcellulose (MC) 88 % of control

C=CCOC(=O)C(=O)OCC=C
inactive: endpoint: mean survival time, dose: 100.0 mg/kg/injection, schedule: Q01DX009 (ip), vehicle: saline with Tween-80 95 % of control
